Reference: PMC11787888, “Development and confirmation of humanized plasma and epithelial lining fluid exposures of meropenem, cefiderocol and tobramycin in a standardized neutropenic murine pneumonia model” (Journal of Antimicrobial Chemotherapy, 2024)
Values after ≈ are worked out from the molar mass of the structure shown. Where two headings read alike, the source gives them in different places.

What was measured:
[1] = cited from earlier work
[2] = Plasma pharmacokinetics in the COMBINE murine neutropenic pneumonia model; settings: for k el: female, CD-1, mouse, plasma, sc; for K a (absorption rate constant into central compartment) / V plasma (volume of distribution in central compartment): best-fit one-compartment model
Protocol: (§1) The model followed the COMBINE protocol with laboratory-specific detailed methods as follows.[6] Specific pathogen free CD-1, female mice 6–8 weeks old were acquired from Charles River Laboratories, Inc. (Raleigh, NC, USA). All animals were allowed to acclimatize for 72 h before any study procedures and were housed as groups of six at controlled room temperature in HEPA-filtered cages (Innovive, San Diego, CA, USA). Study rooms were maintained with diurnal cycles (12 h light/12 h dark) and food and water were provided ad libitum.
(§2) Neutropenia was achieved through 0.2 mL intraperitoneal (IP) administrations of cyclophosphamide 150 mg/kg on day minus 4 and an additional 100 mg/kg on day minus 1. A predictable degree of renal impairment was produced using 5 mg/kg of uranyl nitrate (Electron Microscopy Sciences, Hatfield, PA, USA) dissolved in sterile water administered as a 0.2 mL IP injection on day minus 3. […] Mice were anaesthetised using inhaled isoflurane, manually restrained upright and infected with 50 µL of bacterial suspension via the nares. Each bacterial inoculation suspension was used within 30 minutes of initial preparation.
(§3) The purpose of these studies was to establish HSRs in both plasma and ELF in the COMBINE murine neutropenic pneumonia model equivalent to clinical doses of meropenem (2 g every 8 h as 3 h infusion),[9] cefiderocol (2 g every 8 h as 3 h infusion)[10] and tobramycin (7 mg/kg as 0.5 h infusion)[11–13] based on unbound (free) exposures.
(§4) At predefined timepoints (shown in Figures 1–3), groups of six mice had blood sampled via retro-orbital bleeding (two time points, under anaesthesia with isoflurane 2%–3% v/v in 100% oxygen via inhalation) and/or cardiac puncture (one terminal time point). Proparacaine hydrochloride ophthalmic solution 0.5% was applied to the eye (1–2 drops) after blood sampling via retro-orbital bleeding. The volume of blood collected was 0.15 mL per sample via retro-orbital bleeding with subsequent fluid replacement using 0.2 mL normal saline given IP. Mice were euthanized by CO2 exposure before cardiac puncture. Following blood collection by cardiac puncture, but before cervical dislocation, bronchoalveolar lavage (BAL) fluid was collected from the mice at the same time points. A catheter was inserted into the trachea of the mice, and lungs were lavaged with four separate aliquots of 0.4 mL of normal saline. The BAL fluid was withdrawn immediately after injection and pooled for each animal. Pooled BAL was centrifuged for 10 min at 4°C and the supernatant was collected for analysis.
(§5) Drug concentrations in ELF were estimated by correcting the drug concentration in BAL fluid for the dilution with normal saline during lung lavage using the following formula: compoundELF = compoundBAL × (ureaplasma/ureaBAL), where compoundBAL is the measured drug concentration in the BAL fluid sample and ureaplasma and ureaBAL are the concentrations of urea in paired plasma and BAL fluid samples from each mouse, respectively. Owing to the lack of albumin in BAL fluid, total ELF concentrations were considered unbound.
(§6) Statistical outliers for each respective analyte were removed by the interquartile range method. Previously reported meropenem, cefiderocol and plazomicin (an aminoglycoside similar to tobramycin) plasma HSRs developed in alternative murine models were used as a baseline.[19],[20] Mathematical modifications were made to the baseline regimens as necessary to achieve translational exposures in the COMBINE model and repeat confirmatory PK studies were undertaken for both plasma and ELF.

[3] = ELF pharmacokinetics in the COMBINE murine neutropenic pneumonia model; settings: for k el: female, CD-1, mouse, epithelial lining fluid (ELF), sc; for K a-ELF (absorption rate constant into ELF compartment) / V ELF (volume of distribution in ELF compartment): best-fit one-compartment model
Protocol: as §1, §2, §3, §4, §5, §6

[4] = cited from earlier work; remark: listed apart in the source
[5] = design: method as in PMID 33371322, PMID 31724042, PMID 15107149; settings: cited from earlier work
[6] = Ex vivo tobramycin plasma protein binding in mice; type: in vitro ADME; settings: mouse plasma; for fraction unbound at 1 h: subcutaneous
Protocol: Escalating single doses of tobramycin (2.5, 5 and 10 mg/kg) were administered subcutaneously to determine tobramycin plasma protein binding. Triplicate pooled plasma and ultrafiltrate samples were collected at 1 h (5 mice per replicate, 15 mice per dose) and stored at −80°C until concentration determination. Whole blood was collected in K2EDTA tubes and then subsequently centrifuged at 4°C at 3000g for 10 minutes. Plasma was separated (total plasma) and 900 µL was added to an ultrafiltration device (Centrifree®, Merck Millipore Ltd, Ireland) and centrifuged using a fixed rotor at 10°C at 2000g for an additional 45 minutes to obtain protein free ultrafiltrate. The triplicate free and total tobramycin concentrations were averaged and then free fractions were calculated using the equation: free fraction = concentrationultrafiltrate/concentrationtotal plasma.
Mean percentages of protein binding (±standard deviation) were 27.1% (2.9%), 20.5% (9.3%) and 19.8% (1.5%) at the 1-h timepoint after receiving doses of 2.5, 5 and 10 mg/kg, respectively.

K. pneumoniae CDC 851 = test system: K. pneumoniae CDC 851; design: method as in earlier work; settings: cited from earlier work
clinical = settings: human, in vivo
Protocol: as §3

[7] = human plasma, 2 g every 8 h as a 3 h infusion
[8] = human ELF, 2 g every 8 h as a 3 h infusion
[9] = human, 7 mg/kg as 0.5 h infusion

With `C[C@@H](O)[C@H]1C(=O)N2C(C(=O)O)=C(S[C@@H]3CN[C@H](C(=O)N(C)C)C3)[C@H](C)[C@H]12` [Meropenem, meropenem] as the molecule, how does the “%fT > MIC for a MIC of 1 µg/mL” value [1, 7] read?
The value was 100%.

What about the “%fT > MIC for a MIC of 2 µg/mL” value [1, 7] of the same molecule?
Its value is 100%.

And the “%fT > MIC for a MIC of 4 µg/mL” value [1, 7]?
The value was 100%.

What about the “%fT > MIC for a MIC of 8 µg/mL” value [1, 7] of the same molecule?
Its value is 78%.

And the “%fT > MIC for a MIC of 16 µg/mL” value [1, 7]?
The value was 50%.

And the “%fT > MIC for a MIC of 32 µg/mL” value [1, 7]?
Its value is 19%.

What about the “%fT > MIC for a MIC of 64 µg/mL” value [1, 7] of the same molecule?
Its value is 0%.

What about the “%fT > MIC for a MIC of 128 µg/mL” value [1, 7] of the same molecule?
The value was 0%.

What about the k el [2] of the same molecule?
The k el was 0.00754 s⁻¹.

What about the “K a (absorption rate constant into central compartment)” value ([2]; mouse plasma) of the same molecule?
Its value is 1.34 h⁻¹.

And the “V plasma (volume of distribution in central compartment)” value ([2]; mouse plasma)?
The value was 0.04 L/kg.

What about the “%fT > MIC for a MIC of 1 µg/mL” value ([2]; mouse plasma, plasma HSR) of the same molecule?
The value was 100%.

And the “%fT > MIC for a MIC of 2 µg/mL” value ([2]; mouse plasma, plasma HSR)?
Its value is 100%.

And the “%fT > MIC for a MIC of 4 µg/mL” value ([2]; mouse plasma, plasma HSR)?
Its value is 94%.

And the “%fT > MIC for a MIC of 8 µg/mL” value ([2]; mouse plasma, plasma HSR)?
The value was 75%.

And the “%fT > MIC for a MIC of 16 µg/mL” value ([2]; mouse plasma, plasma HSR)?
The value was 55%.

What about the “%fT > MIC for a MIC of 32 µg/mL” value ([2]; mouse plasma, plasma HSR) of the same molecule?
The value was 29%.

What about the “%fT > MIC for a MIC of 64 µg/mL” value ([2]; mouse plasma, plasma HSR) of the same molecule?
Its value is 5%.

What about the “%fT > MIC for a MIC of 128 µg/mL” value ([2]; mouse plasma, plasma HSR) of the same molecule?
Its value is 0%.

And the k el [3]?
The k el was 0.000694 s⁻¹.

And the “%fT > MIC for a MIC of 1 µg/mL” value ([3]; mouse ELF, ELF HSR)?
The value was 78%.

And the “%fT > MIC for a MIC of 2 µg/mL” value ([3]; mouse ELF, ELF HSR)?
Its value is 62%.

And the “%fT > MIC for a MIC of 4 µg/mL” value ([3]; mouse ELF, ELF HSR)?
Its value is 43%.

And the “%fT > MIC for a MIC of 8 µg/mL” value ([3]; mouse ELF, ELF HSR)?
The value was 14%.

And the “%fT > MIC for a MIC of 16 µg/mL” value ([3]; mouse ELF, ELF HSR)?
Its value is 3%.

And the “%fT > MIC for a MIC of 32 µg/mL” value ([3]; mouse ELF, ELF HSR)?
The value was 0%.

What about the “%fT > MIC for a MIC of 64 µg/mL” value ([3]; mouse ELF, ELF HSR) of the same molecule?
The value was 0%.

And the “%fT > MIC for a MIC of 128 µg/mL” value ([3]; mouse ELF, ELF HSR)?
Its value is 0%.

And the “K a-ELF (absorption rate constant into ELF compartment)” value ([3]; mouse ELF)?
The value was 7.00 h⁻¹.

And the “V ELF (volume of distribution in ELF compartment)” value ([3]; mouse ELF)?
The value was 1.60 L/kg.

And the “%fT > MIC for a MIC of 1 µg/mL” value [4, 8]?
Its value is 90%.

And the “%fT > MIC for a MIC of 2 µg/mL” value [4, 8]?
Its value is 71%.

And the “%fT > MIC for a MIC of 4 µg/mL” value [4, 8]?
Its value is 50%.

What about the “%fT > MIC for a MIC of 8 µg/mL” value [4, 8] of the same molecule?
Its value is 16%.

What about the “%fT > MIC for a MIC of 16 µg/mL” value [4, 8] of the same molecule?
The value was 0%.

And the “%fT > MIC for a MIC of 32 µg/mL” value [4, 8]?
Its value is 0%.

What about the “%fT > MIC for a MIC of 64 µg/mL” value [4, 8] of the same molecule?
The value was 0%.

And the “%fT > MIC for a MIC of 128 µg/mL” value [4, 8]?
The value was 0%.

Which results are given for `NC[C@H]1O[C@H](O[C@H]2[C@H](O)[C@@H](O[C@H]3O[C@H](CO)[C@@H](O)[C@H](N)[C@H]3O)[C@H](N)C[C@@H]2N)[C@H](N)C[C@@H]1O` [Tobramycin, tobramycin]?
Human plasma protein binding [5]: 10%; Unbound fraction in plasma ([6]; average of 2.5, 5 and 10 mg/kg): 77.6%; fraction unbound at 1 h ([6]; 1 h after 2.5 mg/kg subcutaneously, ultrafiltration, read-out: Mean percentage of protein binding (±standard deviation) (converted)): 0.729; fraction unbound at 1 h ([6]; 1 h after 5 mg/kg subcutaneously, ultrafiltration, read-out: Mean percentage of protein binding (±standard deviation) (converted)): 0.795; fraction unbound at 1 h ([6]; 1 h after 10 mg/kg subcutaneously, ultrafiltration, read-out: Mean percentage of protein binding (±standard deviation) (converted)): 0.802; fraction unbound at 1 h ([6]; average of 2.5, 5 and 10 mg/kg, read-out: Plasma protein binding, average across the three doses (converted)): 0.776; plasma fAUC0-24 [1, 9]: 103000 ng·h/mL; plasma fCmax [1, 9]: 18.3 mg/L; k el [2]: 8.61e-05 s⁻¹; K a (absorption rate constant into central compartment) ([2]; mouse plasma): 23.68 h⁻¹; V plasma (volume of distribution in central compartment) ([2]; mouse plasma): 0.37 L/kg; plasma fAUC0-24 ([2]; murine, plasma HSR): 103000 ng·h/mL; plasma fCmax ([2]; murine, plasma HSR): 17.7 mg/L; k el [3]: 9.72e-05 s⁻¹; K a-ELF (absorption rate constant into ELF compartment) ([3]; mouse ELF): 1.74 h⁻¹; V ELF (volume of distribution in ELF compartment) ([3]; mouse ELF): 0.79 L/kg; ELF fAUC0-24 ([3]; murine, ELF HSR): 76000 ng·h/mL; ELF fCmax ([3]; murine, ELF HSR): 6.6 mg/L; AUCELF/AUCplasma penetration ratio ([4]; human, population PK analysis): 0.64; MIC (K. pneumoniae CDC 851): 16 µg/mL (≈ 34.2 µM); Kp (clinical): 0.69; ELF fAUC0-24 (clinical; 7 mg/kg): 79000 ng·h/mL; ELF fCmax (clinical; 7 mg/kg): 6.8 mg/L
